Source: PubChem BioAssay (NCI)
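Cultured in 96-well plates, cells were exposed to test compound for 48 hours across five concentrations. At the GI50, growth is halved. TGI: total growth inhibition.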

How the values were obtained:
Experiment in all cases: inhibition of tumour cell growth, NCI panel, 48 h
[1] = test system: 786-0 renal
[2] = test system: A498 renal
[3] = test system: A549 NSCLC
[4] = test system: ACHN renal
[5] = test system: BT-549 breast
[6] = test system: CAKI-1 renal
[7] = test system: CCRF-CEM leukemia
[8] = test system: COLO 205 colon
[9] = test system: DU-145 prostate
[10] = test system: EKVX NSCLC
[11] = test system: HCC-2998 colon
[12] = test system: HCT-116 colon
[13] = test system: HCT-15 colon
[14] = test system: HL-60(TB) leukemia
[15] = test system: HOP-62 NSCLC
[16] = test system: HS 578T breast
[17] = test system: HT29 colon
[18] = test system: IGROV1 ovarian
[19] = test system: K-562 leukemia
[20] = test system: KM12 colon
[21] = test system: LOX IMVI melanoma
[22] = test system: M14 melanoma
[23] = test system: MALME-3M melanoma
[24] = test system: MCF7 breast
[25] = test system: MDA-MB-231 breast
[26] = test system: MDA-MB-435
[27] = test system: MOLT-4 leukemia
[28] = test system: NCI-H226 lung
[29] = test system: NCI-H23 lung
[30] = test system: NCI-H460 lung
[31] = test system: NCI-H522 lung
[32] = test system: NCI/ADR-RES ovarian
[33] = test system: OVCAR-3 ovarian
[34] = test system: OVCAR-4 ovarian
[35] = test system: OVCAR-5 ovarian
[36] = test system: OVCAR-8 ovarian
[37] = test system: PC-3 prostate
[38] = test system: RPMI-8226 leukemia
[39] = test system: RXF 393 renal
[40] = test system: SF-268 CNS
[41] = test system: SF-295 CNS
[42] = test system: SF-539 CNS
[43] = test system: SK-MEL-2 melanoma
[44] = test system: SK-MEL-28 melanoma
[45] = test system: SK-MEL-5 melanoma
[46] = test system: SK-OV-3 ovarian
[47] = test system: SN12C renal
[48] = test system: SNB-19 CNS
[49] = test system: SNB-75 CNS
[50] = test system: SR leukemia
[51] = test system: SW-620 colon
[52] = test system: T-47D breast
[53] = test system: TK-10 renal
[54] = test system: U251 CNS
[55] = test system: UACC-257 melanoma
[56] = test system: UACC-62 melanoma
[57] = test system: UO-31 renal

Q: With O=C(Nc1ccccc1O)c1ccc(CNC(=O)c2ccsc2Nc2ccnc(C(F)(F)F)c2)cc1 as the compound, how does the GI50 [1] read?
A: The GI50 was 2.29 µM.

Q: And the TGI [1]?
A: The TGI was 5.34 µM.

Q: What about the GI50 [2] of the same compound?
A: Its GI50 is 0.787 µM.

Q: What about the TGI [2] of the same compound?
A: The TGI was 3.01 µM.

Q: What about the GI50 [3] of the same compound?
A: The GI50 was 3.21 µM.

Q: What about the TGI [3] of the same compound?
A: The TGI was 12.5 µM.

Q: And the GI50 [4]?
A: The GI50 was 2.6 µM.

Q: And the TGI [4]?
A: Its TGI is 10.3 µM.

Q: And the GI50 [5]?
A: The GI50 was 1.89 µM.

Q: What about the TGI [5] of the same compound?
A: The TGI was 5.04 µM.

Q: And the GI50 [6]?
A: Its GI50 is 2.62 µM.

Q: What about the TGI [6] of the same compound?
A: Its TGI is 9.96 µM.

Q: What about the GI50 [7] of the same compound?
A: The GI50 was 0.32 µM.

Q: And the TGI [7]?
A: The TGI was greater than 100 µM.

Q: And the GI50 [8]?
A: The GI50 was 3.4 µM.

Q: And the TGI [8]?
A: The TGI was 13.4 µM.

Q: And the GI50 [9]?
A: The GI50 was 2.12 µM.

Q: What about the TGI [9] of the same compound?
A: Its TGI is 5.67 µM.

Q: What about the GI50 [10] of the same compound?
A: Its GI50 is 3.09 µM.

Q: What about the TGI [10] of the same compound?
A: Its TGI is 14.5 µM.

Q: And the GI50 [11]?
A: Its GI50 is 1.84 µM.

Q: And the TGI [11]?
A: The TGI was 4.33 µM.

Q: What about the GI50 [12] of the same compound?
A: Its GI50 is 1.34 µM.

Q: And the TGI [12]?
A: The TGI was 3.36 µM.

Q: What about the GI50 [13] of the same compound?
A: Its GI50 is 3.31 µM.

Q: And the TGI [13]?
A: Its TGI is 18.9 µM.

Q: And the GI50 [14]?
A: Its GI50 is 2.86 µM.

Q: And the TGI [14]?
A: The TGI was 9.32 µM.

Q: And the GI50 [15]?
A: Its GI50 is 7.84 µM.

Q: And the TGI [15]?
A: The TGI was greater than 100 µM.

Q: And the GI50 [16]?
A: Its GI50 is 2.71 µM.

Q: What about the TGI [16] of the same compound?
A: Its TGI is 16.2 µM.

Q: And the GI50 [17]?
A: Its GI50 is 3.05 µM.

Q: What about the TGI [17] of the same compound?
A: Its TGI is 12.6 µM.

Q: And the GI50 [18]?
A: Its GI50 is 2.8 µM.

Q: What about the TGI [18] of the same compound?
A: Its TGI is 13.5 µM.

Q: What about the GI50 [19] of the same compound?
A: The GI50 was 1.62 µM.

Q: And the TGI [19]?
A: The TGI was greater than 100 µM.

Q: And the GI50 [20]?
A: The GI50 was 2.84 µM.

Q: What about the TGI [20] of the same compound?
A: Its TGI is 11.9 µM.

Q: What about the GI50 [21] of the same compound?
A: Its GI50 is 1.63 µM.

Q: And the TGI [21]?
A: Its TGI is 3.99 µM.

Q: And the GI50 [22]?
A: Its GI50 is 2.61 µM.

Q: And the TGI [22]?
A: The TGI was 7.03 µM.

Q: What about the GI50 [23] of the same compound?
A: Its GI50 is 1.7 µM.

Q: What about the TGI [23] of the same compound?
A: The TGI was 6.65 µM.

Q: And the GI50 [24]?
A: Its GI50 is 2.03 µM.

Q: What about the TGI [24] of the same compound?
A: Its TGI is 10.4 µM.

Q: And the GI50 [25]?
A: The GI50 was 2.85 µM.

Q: What about the TGI [25] of the same compound?
A: Its TGI is 13.2 µM.

Q: And the GI50 [26]?
A: Its GI50 is 2.19 µM.

Q: And the TGI [26]?
A: Its TGI is 6.54 µM.

Q: And the GI50 [27]?
A: The GI50 was 0.956 µM.

Q: And the TGI [27]?
A: The TGI was 9.48 µM.

Q: What about the GI50 [28] of the same compound?
A: Its GI50 is 2.48 µM.

Q: What about the TGI [28] of the same compound?
A: Its TGI is 30.9 µM.

Q: And the GI50 [29]?
A: The GI50 was 1.72 µM.

Q: And the TGI [29]?
A: Its TGI is 4.88 µM.

Q: And the GI50 [30]?
A: Its GI50 is 2.38 µM.

Q: And the TGI [30]?
A: The TGI was 11.4 µM.

Q: What about the GI50 [31] of the same compound?
A: The GI50 was 1.77 µM.

Q: What about the TGI [31] of the same compound?
A: The TGI was 6.86 µM.

Q: What about the GI50 [32] of the same compound?
A: Its GI50 is 2.23 µM.

Q: What about the TGI [32] of the same compound?
A: The TGI was 8.52 µM.

Q: What about the GI50 [33] of the same compound?
A: The GI50 was 1.85 µM.

Q: What about the TGI [33] of the same compound?
A: The TGI was 4.8 µM.

Q: What about the GI50 [34] of the same compound?
A: The GI50 was 1.74 µM.

Q: What about the TGI [34] of the same compound?
A: Its TGI is greater than 100 µM.

Q: And the GI50 [35]?
A: The GI50 was 2.05 µM.

Q: And the TGI [35]?
A: The TGI was 14.7 µM.

Q: What about the GI50 [36] of the same compound?
A: The GI50 was 1.57 µM.

Q: What about the TGI [36] of the same compound?
A: The TGI was 19.1 µM.

Q: And the GI50 [37]?
A: The GI50 was 1.94 µM.

Q: What about the TGI [37] of the same compound?
A: The TGI was 20.8 µM.

Q: What about the GI50 [38] of the same compound?
A: The GI50 was 1.14 µM.

Q: What about the TGI [38] of the same compound?
A: The TGI was 6.72 µM.

Q: What about the GI50 [39] of the same compound?
A: The GI50 was 1.93 µM.

Q: What about the TGI [39] of the same compound?
A: The TGI was 4.82 µM.

Q: And the GI50 [40]?
A: Its GI50 is 2.69 µM.

Q: And the TGI [40]?
A: Its TGI is 15.1 µM.

Q: What about the GI50 [41] of the same compound?
A: The GI50 was 1.86 µM.

Q: What about the TGI [41] of the same compound?
A: Its TGI is 4.51 µM.

Q: What about the GI50 [42] of the same compound?
A: Its GI50 is 1.95 µM.

Q: And the TGI [42]?
A: The TGI was 18.1 µM.

Q: And the GI50 [43]?
A: Its GI50 is 2.1 µM.

Q: And the TGI [43]?
A: Its TGI is 6.26 µM.

Q: What about the GI50 [44] of the same compound?
A: The GI50 was 2.15 µM.

Q: And the TGI [44]?
A: Its TGI is 6.79 µM.

Q: What about the GI50 [45] of the same compound?
A: The GI50 was 1.69 µM.

Q: What about the TGI [45] of the same compound?
A: Its TGI is 4.07 µM.

Q: What about the GI50 [46] of the same compound?
A: Its GI50 is 5.59 µM.

Q: What about the TGI [46] of the same compound?
A: The TGI was 45.6 µM.

Q: And the GI50 [47]?
A: Its GI50 is 4.13 µM.

Q: And the TGI [47]?
A: The TGI was 79.3 µM.

Q: And the GI50 [48]?
A: Its GI50 is 2.97 µM.

Q: And the TGI [48]?
A: Its TGI is 13.2 µM.

Q: What about the GI50 [49] of the same compound?
A: The GI50 was 2.57 µM.

Q: What about the TGI [49] of the same compound?
A: Its TGI is 43.5 µM.

Q: And the GI50 [50]?
A: Its GI50 is 2.81 µM.

Q: And the TGI [50]?
A: Its TGI is 29.1 µM.

Q: And the GI50 [51]?
A: The GI50 was 2.5 µM.

Q: And the TGI [51]?
A: Its TGI is 10.5 µM.

Q: What about the GI50 [52] of the same compound?
A: The GI50 was 2.71 µM.

Q: What about the TGI [52] of the same compound?
A: The TGI was greater than 100 µM.

Q: And the GI50 [53]?
A: Its GI50 is 2.1 µM.

Q: What about the TGI [53] of the same compound?
A: The TGI was 9.33 µM.

Q: What about the GI50 [54] of the same compound?
A: Its GI50 is 1.65 µM.

Q: What about the TGI [54] of the same compound?
A: The TGI was 5.07 µM.

Q: What about the GI50 [55] of the same compound?
A: The GI50 was 1.52 µM.

Q: What about the TGI [55] of the same compound?
A: The TGI was 7.03 µM.

Q: What about the GI50 [56] of the same compound?
A: Its GI50 is 1.43 µM.

Q: What about the TGI [56] of the same compound?
A: Its TGI is 4.83 µM.

Q: And the GI50 [57]?
A: The GI50 was 1.32 µM.

Q: And the TGI [57]?
A: The TGI was 4.34 µM.
